From patent US20260328779A1, “METHODS AND COMPOSITIONS FOR THE DIAGNOSIS AND TREATMENT OF IGA NEPHROPATHY” (Beth Israel Deaconess Medical Center, Inc., priority 2022, published 2026)

Tests used:
[1] = tested on: anti-Tn IgM; assay: Inhibition of anti-Tn antibody binding to Tn glycopeptide array; design: species or system human; settings: glycomimetic 20 mM, 30 min at RT, anti-Tn antibodies C3
Protocol: The Tn glycopeptide microarray was prepared as previously described^77. Briefly, the glycopeptides printed on the microarray is as listed (FIG. 2). Purified anti-Tn antibodies (diluted to […] for IgM, and […] for IgG and IgA detection) in TSM binding buffer (20 mM Tris-HCl, pH 7.4, 150 mM NaCl, 2 mM CaCl2), 2 mM MgCl2, with 1% BSA and 0.05% Tween-20) were added to the respective array slides for 1 h at RT. Alexa Fluor #488-labeled goat anti-human IgM or goat anti-human IgG, or FITC-labeled goat anti-human IgA antibody at 1:400 dilution in TSM binding buffer was used for detection of IgM, IgG, and IgA within purified anti-Tn antibodies. Slides were analyzed on a Genepix^# 4300A microarray scanner (Molecular Devices). Images were analyzed with quantitation software (GenePix® Pro Microarray Analysis Software Ver. 7, Molecular Devices). For inhibition assay, a purified Tn(+)IgA1 produced from CosmcKO Dakiki cells was utilized (See Generation of CosmcKO Dakiki cells using CRISPR-Cas9 system for generating the antibody) to inhibit anti-Tn antibodies binding to microarray and Tn(−)IgA1 produced from Dakiki cells as a […]. Purified anti-Tn antibodies (Cl, 10 mg/ml) in TSM binding buffer was preincubated with 1 mg of purified Tn(+)IgA1, or Tn(−)IgA1 for 30 min at RT. […] Heat map and correlation map of binding preferences were analyzed using GLAD (Glycan Array Dashboard).

[2] = tested on: anti-Tn CICs; assay: Dissociation of anti-Tn CICs by glycomimetic treatment (BN-APAGE-WB); assay type: biochemical, human; settings: 100 mM, 2 h at 4° C.; anti-Tn CICs from IgAN patients
Protocol: Furthermore, it was tested whether the anti-Tn IgM immune complexes can be dissociated from Tn(+)IgA1 using compounds that mimic the Tn antigen-glycomimetics. For this purpose, the anti-Tn CICs were affinity-purified from the sera of IgAN patients; the anti-Tn CICs were treated with mock, α-methylGalNAc (glycomimetic compound, αGalNAc), or α-methylGlcNAc (control compound, αGlcNAc), followed by BN-APAGE-WB and probing for IgM, and IgA. […] An IgA1 signal was unable to be detected in mock and α-methylGlcNAc-treated samples (FIG. 5F, lane 1 and 3, bottom), indicating the IgA1 epitopes may be buried within the CICs and thus not available in this native page set-up for WB detection.
Samples (~0.1 mg) or for plain serum (1:200 dilution in PBS, […]) run on BN-APAGE were transferred onto activated PVDF membrane (Cat #IPVH00010, EMD Millipore, wet-transfer system, 40 V for 2 h). The membranes were quickly destained with 100% methanol, washed with TBST, and blocked with 5% (w/vol) non-fat milk in TBST for 1 h at RT. […]
For glycomimetic treatment, purified anti-Tn CICs (~0.1 mg) was pretreated with α-methylGalNAc (100 mM), α-methylGlcNAc (100 mM), or mock in PBS for 2 h at 4° C. on a rotator (10 rpm) and the samples were analyzed by BN-APAGE-WB and probed for IgM and IgA.

For `CO[C@H]1O[C@H](CO)[C@H](O)[C@H](O)[C@H]1NC(C)=O` [α-methylGalNAc], the “inhibition of anti-Tn antibody (IgM) binding to Tn glycopeptide array” value [1] was “specifically inhibited binding of the anti-Tn IgM” and the “dissociation of Tn(+)IgA1 from anti-Tn CICs” value [2] was “caused dissociation of the Tn(+)IgA1 from anti-Tn IgM immune complexes”.
